Measured values published in patent US20030091533A1, “Regulation of mononuclear phagocyte stimulation” (priority 2001, published 2003).
Marks after values point to notes of the source that are not given here.

B1: IFN-γ: Interferon gamma, primes mononuclear phagocytes, 200 U/ml (protein, UniProt P01579 24-161, looked up)
Interferon gamma: QDPYVKEAENLKKYFNAGHSDVADNGTLFLGILKNWKEESDRKIMQSQIVSFYFKLFKNFKDDQSIQKSVETIKEDMNVKFFNSNKKKRDDFEKLTNYSVTDLNVQRKAIHELIQVMAELSPAAKTGKRKRSQMLFRG

Tests used:
Type in all cases: cell-based, human
PMA-stimulated PBM = assay: Extracellular O2- release, SOD-inhibitable reduction of ferricytochrome c; conditions: for effect on the basal oxidative burst: incubation for 24 hour, PBM without stimulation
Experimental: Extracellular release of O2-derived radicals was evaluated by the SOD-inhibitable reduction of ferricytochrome c, as previously described (Pick, Methods in Enzymology, 132:407-421 (1986)) as described infra.
Extracellular release of O2-derived radicals was evaluated by the SOD-inhibitable reduction of ferricytochrome c, as previously described (Pick, Methods in Enzymology, 132:407-421 (1986)). Briefly, after incubation with IL-9 and IL-4 (20 ng/ml) for 1 hour, 4 hour 24 hour and 96 hour, cells were washed three times in Hank's balanced salt solution without phenol red (HBSS) to remove the phenol red-containing medium and incubated at 37° C. with HBSS containing 160 μM ferricytochrome c (plus 300 IU/ml SOD as control for each condition), and concomittantly with 100 ng/ml PMA when indicated. Optical density (OD) at 550 nm was then recorded in a plate spectrometer (Titertek Multiscan Plus MKII, Labsystems, Finland) after 60 min. The released amount of superoxide anion (O2^−) was deduced from the absorbance values at 550 nm (after subtraction of control values with SOD) using the cytochrome c extinction coefficient of 21×10^3 M^−1 cm^−1 (See Massey, Biochim Biophys Acta, 34: 255(1959)). Results were expressed as nmoles O2^− per 10^6 cells per hour (FIG. 1).

CD14 = CD14 surface expression on PBM by FACS; conditions: for CD14 expression (MFI): PBM preincubated 24 hour, 20 ng/ml IL-9 or IL-4, 200 U/ml IFN-γ, means±SD, medium 107 ± 4; for CD14 expression on the surface of PBM compared with medium alone: preincubated for 24 hour
Experimental: (§1) Table 2. Cells (0.2×10^6) were preincubated for 24 hour with cytokines (20 ng/ml for IL-9 or IL-4 and 200 U/ml for IFN-γ), before the assessment of LPS receptor expression by immunostaining using anti-human CD14 mAb conjugated to FITC and anti-human TLR4 rabbit Ab followed by mouse anti-rabbit IgG (MAR-FITC). Cell-associated fluorescence was evaluated by FACS and expressed as mean fluorescence intensity (MFI). Autofluorescence of PBM was negligible (MFI: 3±1). Data are means±SD (n=3), and are representative of two experiments. *P<0.05 compared with cells preincubated with medium.
(§2) Additional stainings for CD14 and Toll-like receptor (TLR)-4 were performed on PBM preincubated for 24 hour with cytokines, using respectively FITC-conjugated anti-CD14 mAb (clone MøP9, mIgG2b, Becton Dickinson) and anti-TLR4 rabbit Ab (Santa Cruz, Calif.) followed by F (ab′)2 fragments of mouse anti-rabbit IgG (MAR)-FITC.

TLR4 = TLR4 surface expression on PBM by FACS; conditions: for TLR4 expression (MFI): PBM preincubated 24 hour, 20 ng/ml IL-9 or IL-4, 200 U/ml IFN-γ, means±SD, medium 73 ± 2; for TLR4 expression on the surface of PBM compared with medium alone: preincubated for 24 hour
Experimental: as §1, §2

LPS-stimulated PBM [1] = assay: IL-10 release by ELISA, PBM; conditions: for IL-10 release by LPS-stimulated PBM: preincubated 24 hour, LPS 20 h
Experimental: (§3) FIG. 6 depicts the effect of IL-9, IL-4 and IFN-γ on the release of IL-10 (A) and TGF-β1 (B) by LPS-stimulated PBM and AM cultured under the same conditions as described in FIG. 5 Example I. D. TGF-β1 was determined by ELISA in crude supernatants (untreated supernatants) and in ethanol-acid (acid-treated) supernatants, using a kit from Biosource for determining TGF-β1 release from its latent complexes. An ELISA kit from CLB (Amsterdam, The Netherlands) was used to determine IL-10 following the manufacturer's protocol. […] Data are means±SEM (n=3). *P<0.05 compared with unstimulated cells; **P<0.05 compared with cells preincubated with medium.
Cells (1×10^6 PBM or 0.5×10^6 AM/well) were distributed in 24-well plates (Falcon), preincubated in cRPMI for 24 hours at 37° C., 5% CO2 with cytokines (IL-9, IL-4 (20 ng/ml) and IFN-γ (200 U/ml)) and stimulated for 20 hours with 1 μg/ml LPS without removing cytokines. Supernatants were harvested and frozen at −20° C. until cytokine titration. Release of TNF-α was quantified by a cytotoxicity bioassay using WEHI 164 cells clone 13, as previously described (Espevik and Nissen-Meyer, J. Immunol. Methods, 95:99-105 (1986) incorporated herein by reference), using rhTNF-α from Boehringer as a standard. IL-8, IL-10 and TGF-β1 concentrations were determined by ELISA. A kit from CLB (Amsterdam, The Netherlands) was used for IL-10 quantitation, following the manufacturer's protocol. A kit from Biosource allowed to determine TGF-β1 after the release from its latent complexes by a treatment of supernatants with ethanol acid (‘acid-treated supernatants’); TGF-P 1 was also assessed in crude supernatants (‘untreated supernatants’). To assay for IL-8, 96-well plates were coated overnight at 4° C. with 4 μg/ml anti-hIL-8 mAb (Sigma, clone 6217.11) in 100 mM sodium carbonate buffer (pH 9.6). […] The reaction was then developed in 0.03% v/v H2O2 substrate and 0.42 mM 3,3′,5,5′-tetramethylbenzidine as chromogen in 100 mM sodium acetate/citric acid buffer (pH 4.9), stopped with 2 M H2SO4, and read in a plate spectrometer at 450 nm. […]

LPS-stimulated PBM [2] = assay: TGF-β1 release by ELISA, PBM; conditions: for potentiation of TGF-β1 production by LPS-stimulated PBM: preincubated 24 hour
Experimental: as §3
Cells (1×10^6 PBM or 0.5×10^6 AM/well) were distributed in 24-well plates (Falcon), preincubated in cRPMI for 24 hours at 37° C., 5% CO2 with cytokines (IL-9, IL-4 (20 ng/ml) and IFN-γ (200 U/ml)) and stimulated for 20 hours with 1 μg/ml LPS without removing cytokines. Supernatants were harvested and frozen at −20° C. until cytokine titration. Release of TNF-α was quantified by a cytotoxicity bioassay using WEHI 164 cells clone 13, as previously described (Espevik and Nissen-Meyer, J. Immunol. Methods, 95:99-105 (1986) incorporated herein by reference), using rhTNF-α from Boehringer as a standard. IL-8, IL-10 and TGF-β1 concentrations were determined by ELISA. A kit from CLB (Amsterdam, The Netherlands) was used for IL-10 quantitation, following the manufacturer's protocol. A kit from Biosource allowed to determine TGF-β1 after the release from its latent complexes by a treatment of supernatants with ethanol acid (‘acid-treated supernatants’); TGF-P 1 was also assessed in crude supernatants (‘untreated supernatants’). To assay for IL-8, 96-well plates were coated overnight at 4° C. with 4 μg/ml anti-hIL-8 mAb (Sigma, clone 6217.11) in 100 mM sodium carbonate buffer (pH 9.6). After washings in PBS containing 0.1% v/v Tween 20 and blocking for 1 hour at 37° C. with 1% w/v BSA in the same buffer, rhIL-8 standards (Biosource International) and supernatants were incubated for 2 hour at 37° C. Plates were then incubated with 20 ng/ml biotinylated polyclonal anti-hIL-8 Ab (R§D Systems) in blocking buffer and, after washings, with HRP-conjugated streptavidin (Sigma). The reaction was then developed in 0.03% v/v H2O2 substrate and 0.42 mM 3,3′,5,5′-tetramethylbenzidine as chromogen in 100 mM sodium acetate/citric acid buffer (pH 4.9), stopped with 2 M H2SO4, and read in a plate spectrometer at 450 nm. The sensitivity of the TNF-α bioassay was 0.2 pg/ml, and that of IL-8, IL-10, and TGF-β1 immunoassays 10 pg/ml, 2 pg/ml, and 2 pg/ml, respectively. All supernatants were assayed in duplicate.

Row | Molecule | effect on O2^− release by PMA-stimulated PBM (PMA-stimulated PBM; 24 hour of preincubation) | effect on O2^− release by PMA-stimulated PBM (PMA-stimulated PBM; 96 hour of preincubation) | effect on the basal oxidative burst (PMA-stimulated PBM) | CD14 expression (MFI) (CD14) | CD14 expression on the surface of PBM compared with medium alone (CD14) | TLR4 expression (MFI) (TLR4) | TLR4 expression on the surface of PBM compared with medium alone (TLR4) | IL-10 release by LPS-stimulated PBM (LPS-stimulated PBM [1]) | potentiation of TGF-β1 production by LPS-stimulated PBM (LPS-stimulated PBM [2]; LPS 20 h) | O2^− release by PMA-stimulated PBM (PMA-stimulated PBM; preincubation 24 hour, 20 ng/ml, PMA 100 ng/ml, medium-preincubated cells 40.1±2.5) | effect on O2^− release by PMA-stimulated PBM (PMA-stimulated PBM; shorter preincubation periods (1 hour, 4 hour)) | effect on the up regulation of CD14 on PBM incubated with IFN-γ (CD14; co-incubation with IFN-γ) | LPS-induced IL-10 release by PBM (LPS-stimulated PBM [1]; preincubated 24 hour 20 ng/ml, LPS 1 μg/ml 20 h, medium-preincubated 217.8±25.8) [pg/mL] | production of TGF-β1 by LPS-stimulated PBM (LPS-stimulated PBM [2]; acid-treated supernatants, preincubated 24 hour 20 ng/ml, LPS 20 h, medium-preincubated 586±64) [pg/mL] | modulation of TGF-β1 in unstimulated PBM (LPS-stimulated PBM [2]; without LPS)
1 | IL-4: Th2 cytokine interleukin-4 used as comparator, 20 ng/ml | same inhibitory effect | significantly increased | little effect | 57 ± 3* MFI | down regulated | 58 ± 1* MFI | down regulated | inhibited | not observed |  |  |  |  |  | 
2 | IL-9: Human IL-9 purified from SF9 insect cell cultures infected with recombinant baculovirus |  | not further increased | little effect | 108 ± 5 MFI | not significantly different | 71 ± 4 MFI | not significantly different |  |  | 23.2±0.8 nmoles 02-per 10^6 cells. h^−1 | not significant | inhibited | 119.7 ± 8.7 | 1687 ± 94 | no modulation
3 | B1 | slightly up regulated |  |  | 121 ± 6* MFI | increased | 82 ± 2* MFI | increased | decreased | not observed |  |  |  |  |  | 
